According to patent US20120058948A1, “Collagen peptides as immune modulators” (priority 2006, published 2012):
“Also recorded” adds a separate entry of the source. Square brackets hold non-standard residues; d marks the D form. Ends that are not written are not given here. Hyp = O=C(O)[C@@H]1C[C@@H](O)CN1

Tested on: human peripheral blood monocytes (HPBMs) activated with LPS
Assay: LPS-induced IL-1β production (ELISA) from activated HPBMs incubated with LPS and peptide
Type: cell-based
Settings: for effect on LPS-induced IL-1β production from HPBMs: LPS 3.3×10^−7 M plus peptide 10^−7, 10^−8 or 10^−9 M, compared with LPS alone, FIG. 3; for effect on LPS-induced IL-1β production at all concentrations studied: all peptide concentrations studied (10^−7 to 10^−9 M), FIGS. 3B-D
Method: Samples (10 mg each) of peptide p1 (Lot #10055791, Genemed Synthesis Inc., San Francisco, Calif.), p2 (Lot #10059702, Genemed Synthesis Inc.) and p3 (Lot #10059701, Genemed Synthesis Inc.) were obtained with >98% purity. Each peptide was diluted with phosphate buffered saline (PBS, […], pH 7.2, 20012-043, Invitrogen Corp., Carlsbad, Calif.) yielding solutions of 10 mg/mL. The peptide solutions were incubated at 4° C. for 24 hours, then stored at −80° C. until required. Glucagon (G2044, Sigma-Aldrich, St. Louis, Mo.) was stored, defrosted and treated in an identical manner to p1, p2 and p3.
Human peripheral blood monocytes were isolated from whole blood supplied by a healthy […] as follows. A 45 mL sample was drawn using 3.2% sodium citrate vacuum tubes. Whole blood was then diluted with a 2.5 mM PBS solution (0.1M, […], Sterile, S02131, Teknova Inc., Hollister, Calif.) to form a solution having a 1:2 ratio of blood:PBS solution. Red blood cells were subsequently removed by density gradient separation using a 1:1 ratio of Histopaque-1077 (Sigma-Aldrich) and centrifuged for 30 minutes at 400×g at 25° C. The plasma layer was removed by aspiration, and the buffy layer, comprising lymphocytes, monocytes and platelets, was collected into two 50 mL conical tubes. To remove the excess histopaque, platelets and plasma, the cells were centrifuged at 250×g for an additional 10 minutes at 4° C. The supernatant was removed and the cells resuspended in 2.5 mM PBS sodium citrate and centrifuged again. The platelet-enriched supernatant was removed after the second wash, leaving a cell pellet in each of the two tubes.
The remainder of the monocyte isolation was carried out using a MS 130-041-201 column (MACS, Miltenyi Biotec, Bergisch Gladbach, Germany) and Human Monocyte Isolation Kit II (MACS, Miltenyi Biotec) as outlined by the manufacturer. The column was washed with 1 mL of 1% heat inactivated fetal bovine serum (1% HI-FBS, USA origin, sterile-filtered, cell culture tested, hybridoma tested, F2442 Sigma-Aldrich) in a PBS sodium citrate solution. The cell pellets were combined into one tube. The cell solution was centrifuged at 300×g at 4° C. and the supematant removed before adding 30 microliters of 1% HI-FBS, 20 microliters FCR blocking agent and 20 microliters monocyte biotin-antibody cocktail per 10^7 cells to the pellet. The tube was lightly agitated then chilled for 10 minutes at 4° C. Anti-biotin microbeads (40 microliters) and 30 microliters of additional 1% HI-FBS per 10^7 cells were added to each tube. The tube was vortexed for three to five seconds to mix, then set to chill at 4° C. for another 15 minutes.
After the incubation at 4° C., 2 mL of 1% HI-FBS were added, and the sample was centrifuged for 10 minutes at 300×g at 25° C. to remove excess antibodies and beads. The supernatant was removed and the pellet carefully re-suspended in 500 microliters of 1% HI-FBS. This cell solution was added to the column, and no further fluid was added until the flow of solution through the column had stopped. The tube and column were washed three times with 500 microliters of 1% HI-FBS, and the fluid was collected for cell culture. Subsequent fluorescence activated cell sorter (FACS) analysis of tissue culture samples confirmed a monocyte purity of >82%. Monocytes were seeded at 5×10^5 per well and cultured in 10% FBS RPMI 1640 and allowed to incubate at 37° C. in 5% CO2.
Because the peptides under investigation can spontaneously form triple-helical structures in solution, the peptides were heated to 90° C. for two minutes prior to introducing them to HPBM cultures to ensure that unfolded peptides, corresponding to the collagen-degradation products, were used for the experiments. The peptide solutions were then diluted with RPMI 1640 10% FBS at 37° C., yielding a final concentration of 1 microgram/mL. Serial dilutions of the peptide samples were performed to obtain the solutions at the desired concentration. […]

Row | Sequence | effect on LPS-induced IL-1β production from HPBMs | time at which elevated IL-1β levels began, peptide p1 relative to peptide p3 (LPS 3.3×10^−7 M plus peptide, sampling every four hours for 28 hours) | effect on LPS-induced IL-1β production at all concentrations studied (LPS 3.3×10^−7 M) | effect on LPS-induced IL-1β production at a relatively high concentration of peptide (LPS 3.3×10^−7 M, relatively high peptide concentration (close to that in synovial fluid of RA patients), FIG. 3A/3D)
1 | POGPOGPOGPOGPOGPOGPOGPOGPOGPOG [peptide p1] | additive effect; also recorded: augmented | later time | augment | –
2 | HSQGTIFTSDYSKYLDSRRAQDFVQWLMNT [peptide p0, reference compound] | no significant effect | – | – | not statistically significant
3 | POGPOGPOGAOGLRGGAGPAGPOGPOGPOG (P[Hyp]GP[Hyp]GP[Hyp]GA[Hyp]GLRGGAGPAGP[Hyp]GP[Hyp]GP[Hyp]G; ends and bridges not checked) [peptide p3, models a relatively imino-poor but relatively rigid collagen segment near a gelatinase scissile bond, flanked by POG triplets] | additive effect; also recorded: greatest effect; also recorded: augmented | – | augment | –
